# Assay results as given in article PMC6378217, “The lysyl oxidase like 2/3 enzymatic inhibitor, PXS‐5153A, reduces crosslinks and ameliorates fibrosis” (Journal of Cellular and Molecular Medicine, 2018).
# Key:
# LOXL2 [1] = biological target: T1, LOXL2 (Homo sapiens, UniProt Q9Y4K0); assay: Collagen oxidation assay; format: biochemical; parameters: purchased R&D Systems; conditions: 20 nmol/L rhLOXL2, different concentrations of PXS-5153A, slope at 20-40 minute
# T1 sequence (Q9Y4K0 26-774): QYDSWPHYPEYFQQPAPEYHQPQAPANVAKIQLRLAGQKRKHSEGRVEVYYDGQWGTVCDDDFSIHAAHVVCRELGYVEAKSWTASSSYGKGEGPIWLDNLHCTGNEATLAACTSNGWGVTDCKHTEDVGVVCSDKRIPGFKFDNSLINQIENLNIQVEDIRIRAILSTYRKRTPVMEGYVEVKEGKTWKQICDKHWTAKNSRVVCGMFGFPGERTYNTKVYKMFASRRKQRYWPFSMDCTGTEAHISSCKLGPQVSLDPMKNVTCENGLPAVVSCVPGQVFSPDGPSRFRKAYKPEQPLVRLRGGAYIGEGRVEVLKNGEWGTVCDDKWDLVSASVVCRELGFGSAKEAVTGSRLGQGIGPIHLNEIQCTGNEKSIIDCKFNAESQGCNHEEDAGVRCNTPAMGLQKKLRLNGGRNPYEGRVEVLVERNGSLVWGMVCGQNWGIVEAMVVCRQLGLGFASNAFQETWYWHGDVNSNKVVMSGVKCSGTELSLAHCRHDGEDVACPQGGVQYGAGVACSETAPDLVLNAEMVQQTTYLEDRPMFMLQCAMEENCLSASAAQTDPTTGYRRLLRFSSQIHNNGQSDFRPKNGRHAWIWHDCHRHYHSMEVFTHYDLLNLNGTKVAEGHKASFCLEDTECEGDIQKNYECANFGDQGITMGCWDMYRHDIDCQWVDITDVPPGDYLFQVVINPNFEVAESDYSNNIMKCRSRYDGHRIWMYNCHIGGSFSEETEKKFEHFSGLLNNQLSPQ
# Procedure: Collagen oxidation assay was based on the release of hydrogen peroxide as previously described27 and detailed in the supporting information. Briefly, collagen was combined with rhLOXL2 with or without the pan‐lysyl oxidase inhibitor BAPN (β‐aminoproprionitrile, 100 μmol/L, Sigma‐Aldrich) or PXS‐5153A. An Amplex reaction mixture was added into each well. The slope per minute of the kinetic curves for each sample was calculated using MARS data analysis software (BMG labtech) in the linear phase (between the 20 and 40 minute time points).
# Collagen oxidation assay was based on the release of hydrogen peroxide as described previously described. In a 384 black well plate, 25 μL of collagen (rat tail, type I, Thermo Fisher, 1.5 mg/mL in 50 mM sodium borate buffer, pH 8.2) was combined with 25 μL rhLOXL2 (R&D Systems) with or without the pan-lysyl oxidase inhibitor BAPN (100 μM, Sigma-Aldrich) or PXS-5153A. A reaction mixture using AR (120 μM; Life Technologies), HRP (1.5 U/mL; Sigma-Aldrich) was prepared in 50 mM sodium borate buffer. […] The relative fluorescence units (RFU) were read every 1 minute for 3 hours at 37°C, excitation 565 nm and emission 590 (Clariostar, BMG labtech). The slope per minute of the kinetic curves for each sample was calculated using MARS data analysis software (BMG labtech) in the linear phase (between the 20-40 minute time points).
# Sodium Channel, Site 2 = assay: Eurofins Hit Profiling Screen; format: binding; conditions: 10 μmol/L
# Prostanoid EP4 = Prostanoid EP4 (Homo sapiens, UniProt P35408); assay: Eurofins Hit Profiling Screen; format: binding; conditions: 10 μmol/L
# Recombinant human LOXL3 = biological target: T2, Recombinant human LOXL3 (Homo sapiens, UniProt P58215); assay: Amplex-Red fluorometric enzymatic activity assay, recombinant human LOXL3; format: biochemical; conditions: 30 minute pre-incubation; average of at least three experiments
# T2 construct: purchased R&D Systems
# Procedure: The measurement of the enzymatic activity of all lysyl oxidase family members was based on the detection of hydrogen peroxide with an Amplex‐Red oxidation assay, as described in Zhou et al26 Recombinant human semicarbazide sensitive amine oxidase (SSAO/VAP1), diamine oxidase (DAO) and monoamine oxidases A and B (MAO‐A and MAO‐B) assays were performed as previously described.27 For detailed enzymatic procedures, see supporting information.
# The measurement of the enzymatic activity of all lysyl oxidase family members was based on the detection of hydrogen peroxide with an Amplex-Red oxidation assay, as described in Zhou et al.[1]; miniaturised in 384 well format, with the appropriate combination of substrate and assay buffer for each individual enzyme. After a 30 minute pre-incubation of the enzyme at 37 °C with the test compound (or with different incubation times for the time-dependency assay), one volume of reaction mixture containing 120 μM Amplex Red (AR) (Life Technologies), 1.5 U/mL horseradish peroxidase (HRP) (Sigma-Aldrich) and the specific substrate was added to each sample. The relative fluorescence units (RFU) were then measured every 2.5 minutes for 30 minutes at 37°C, excitation 565 nm and emission 590, on a BMG Clariostar Microplate Reader. […]
# Dopamine D2S = Dopamine D2S (Homo sapiens, UniProt P14416); assay: Eurofins Hit Profiling Screen; format: binding; conditions: 10 μmol/L
# Adenosine A2A = Adenosine A2A (Homo sapiens, UniProt P29274); assay: Eurofins Hit Profiling Screen; format: binding; conditions: 10 μmol/L
# Adenosine A1 = Adenosine A1 (Homo sapiens, UniProt P30542); assay: Eurofins Hit Profiling Screen; format: binding; conditions: 10 μmol/L
# LOXL2 [2] = biological target: T1, LOXL2; assay: Time dependency of LOXL2 inhibition; format: biochemical
# Procedure: The measurement of the enzymatic activity of all lysyl oxidase family members was based on the detection of hydrogen peroxide with an Amplex-Red oxidation assay, as described in Zhou et al.[1]; miniaturised in 384 well format, with the appropriate combination of substrate and assay buffer for each individual enzyme. After a 30 minute pre-incubation of the enzyme at 37 °C with the test compound (or with different incubation times for the time-dependency assay), one volume of reaction mixture containing 120 μM Amplex Red (AR) (Life Technologies), 1.5 U/mL horseradish peroxidase (HRP) (Sigma-Aldrich) and the specific substrate was added to each sample. The relative fluorescence units (RFU) were then measured every 2.5 minutes for 30 minutes at 37°C, excitation 565 nm and emission 590, on a BMG Clariostar Microplate Reader. All the substrates were used at concentrations corresponding to their Km towards the corresponding enzyme, or with a range of different concentrations for the substrate competition experiments.
# Time-dependent inhibition of the target by the compound was assessed by pre-incubation of 25 uL of target enzyme at 37 °C in a 384-well plate. An 11-point dilution was carried out of the test compound followed by its addition at 0.5 uL to the enzyme plate at different time points (0 minutes, 15 minutes, 30 minutes, 1hour, 2 hours and 4 hours unless otherwise stated in the graph). At the last time point, the reaction mixture was added and the relative fluorescence was measured.
# [3] = biological target: Serotonin (5-Hydroxytryptamine) 5-HT2B (Homo sapiens, UniProt P41595); assay: Eurofins Hit Profiling Screen; format: binding; conditions: 10 μmol/L
# Sequence of Serotonin (5-Hydroxytryptamine) 5-HT2B (P41595 whole entry): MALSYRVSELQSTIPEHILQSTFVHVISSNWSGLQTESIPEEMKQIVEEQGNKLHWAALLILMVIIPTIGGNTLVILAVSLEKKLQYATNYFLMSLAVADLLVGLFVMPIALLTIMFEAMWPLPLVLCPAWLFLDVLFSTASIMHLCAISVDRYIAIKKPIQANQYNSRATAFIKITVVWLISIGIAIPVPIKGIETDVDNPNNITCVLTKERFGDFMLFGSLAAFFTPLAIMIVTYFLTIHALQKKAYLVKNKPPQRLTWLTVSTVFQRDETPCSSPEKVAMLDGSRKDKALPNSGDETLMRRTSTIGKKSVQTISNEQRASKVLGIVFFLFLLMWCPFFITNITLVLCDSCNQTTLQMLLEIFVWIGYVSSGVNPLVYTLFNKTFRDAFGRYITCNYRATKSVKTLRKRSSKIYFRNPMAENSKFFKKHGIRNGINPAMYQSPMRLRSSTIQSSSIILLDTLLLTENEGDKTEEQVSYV
# T2 sequence (P58215 26-753): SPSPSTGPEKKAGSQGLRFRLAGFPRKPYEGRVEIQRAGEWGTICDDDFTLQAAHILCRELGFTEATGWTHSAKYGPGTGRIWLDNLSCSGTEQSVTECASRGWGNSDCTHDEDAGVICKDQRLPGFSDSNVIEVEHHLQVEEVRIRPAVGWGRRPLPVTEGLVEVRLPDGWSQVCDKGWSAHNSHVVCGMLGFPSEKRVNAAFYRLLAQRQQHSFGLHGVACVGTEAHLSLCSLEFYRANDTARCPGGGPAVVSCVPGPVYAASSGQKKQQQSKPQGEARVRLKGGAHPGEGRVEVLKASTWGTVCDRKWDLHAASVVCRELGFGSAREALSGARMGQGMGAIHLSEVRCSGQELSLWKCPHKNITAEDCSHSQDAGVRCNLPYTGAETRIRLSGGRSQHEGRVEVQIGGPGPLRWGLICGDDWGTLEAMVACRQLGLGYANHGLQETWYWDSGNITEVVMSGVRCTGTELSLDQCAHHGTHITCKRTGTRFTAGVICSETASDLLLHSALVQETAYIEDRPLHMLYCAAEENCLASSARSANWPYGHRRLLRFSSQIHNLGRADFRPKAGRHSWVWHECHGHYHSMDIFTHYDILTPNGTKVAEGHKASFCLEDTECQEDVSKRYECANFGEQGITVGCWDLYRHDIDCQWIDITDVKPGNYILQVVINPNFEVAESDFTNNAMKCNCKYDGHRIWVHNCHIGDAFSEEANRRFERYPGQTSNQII
# Sequence of Adenosine A2A (P29274 whole entry): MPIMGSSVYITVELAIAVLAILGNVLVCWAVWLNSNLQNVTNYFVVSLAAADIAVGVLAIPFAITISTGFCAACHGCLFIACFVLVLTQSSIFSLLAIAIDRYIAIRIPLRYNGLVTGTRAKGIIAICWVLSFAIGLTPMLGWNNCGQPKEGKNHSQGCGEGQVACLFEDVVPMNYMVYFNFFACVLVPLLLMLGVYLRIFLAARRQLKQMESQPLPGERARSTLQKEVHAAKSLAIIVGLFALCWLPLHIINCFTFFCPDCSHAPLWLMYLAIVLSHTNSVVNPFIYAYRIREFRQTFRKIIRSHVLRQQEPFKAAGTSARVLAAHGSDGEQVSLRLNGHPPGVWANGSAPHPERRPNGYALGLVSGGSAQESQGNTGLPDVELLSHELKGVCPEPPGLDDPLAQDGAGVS
# Sequence of Adenosine A1 (P30542 whole entry): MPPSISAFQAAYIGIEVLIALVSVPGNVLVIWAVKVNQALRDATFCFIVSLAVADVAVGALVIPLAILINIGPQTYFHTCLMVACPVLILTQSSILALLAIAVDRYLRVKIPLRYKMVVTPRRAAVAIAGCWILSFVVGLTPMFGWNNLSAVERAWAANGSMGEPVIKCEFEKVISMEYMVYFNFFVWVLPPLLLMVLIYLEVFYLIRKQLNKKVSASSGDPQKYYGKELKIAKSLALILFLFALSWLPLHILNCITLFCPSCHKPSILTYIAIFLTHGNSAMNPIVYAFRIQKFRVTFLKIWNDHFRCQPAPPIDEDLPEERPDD
# Sequence of Dopamine D2S (P14416 1-414 isoform P14416-2): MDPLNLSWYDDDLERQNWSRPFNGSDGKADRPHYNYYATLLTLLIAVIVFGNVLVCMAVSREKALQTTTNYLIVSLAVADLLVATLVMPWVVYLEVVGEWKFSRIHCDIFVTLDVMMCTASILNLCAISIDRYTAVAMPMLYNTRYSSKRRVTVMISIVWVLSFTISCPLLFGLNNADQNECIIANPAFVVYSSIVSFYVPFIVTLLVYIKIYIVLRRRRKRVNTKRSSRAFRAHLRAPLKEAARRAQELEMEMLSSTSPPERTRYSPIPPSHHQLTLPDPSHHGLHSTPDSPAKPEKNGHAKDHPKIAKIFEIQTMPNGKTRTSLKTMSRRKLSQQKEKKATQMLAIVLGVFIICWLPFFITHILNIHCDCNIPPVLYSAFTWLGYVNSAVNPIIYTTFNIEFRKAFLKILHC
# Sequence of Prostanoid EP4 (P35408 whole entry): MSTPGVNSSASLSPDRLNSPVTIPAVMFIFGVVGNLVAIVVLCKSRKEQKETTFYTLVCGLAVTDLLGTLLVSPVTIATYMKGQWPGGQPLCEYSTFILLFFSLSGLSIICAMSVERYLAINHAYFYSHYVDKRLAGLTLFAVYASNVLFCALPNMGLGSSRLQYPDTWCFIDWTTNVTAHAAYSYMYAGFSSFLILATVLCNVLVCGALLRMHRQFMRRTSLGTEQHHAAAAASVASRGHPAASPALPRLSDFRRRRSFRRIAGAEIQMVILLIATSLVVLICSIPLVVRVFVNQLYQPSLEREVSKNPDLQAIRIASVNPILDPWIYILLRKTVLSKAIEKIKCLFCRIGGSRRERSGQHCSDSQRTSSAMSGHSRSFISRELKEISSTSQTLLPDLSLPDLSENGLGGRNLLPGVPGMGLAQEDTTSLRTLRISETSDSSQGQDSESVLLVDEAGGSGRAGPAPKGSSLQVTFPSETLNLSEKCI
compound,measurement,setting,value
Cc1c(-c2cccc(S(=O)(=O)N(C)C)c2)c2ncccc2n1C/C(F)=C/CN.Cl.Cl [PXS-5153A],collagen oxidation,LOXL2 [1],impeding collagen oxidation
same,% inhibition,"Sodium Channel, Site 2",57%
same,% inhibition,Prostanoid EP4,11%
same,IC50,Recombinant human LOXL3,63 nM
same,pIC50 ± SD,Recombinant human LOXL3,7.2 ± 0.23
same,% inhibition,Dopamine D2S,10%
same,% inhibition,Adenosine A2A,0%
same,% inhibition,Adenosine A1,9%
same,time to complete inhibition of the enzyme,LOXL2 [2]; at 10xIC50,≤ 15 min
same,time until enzymatic activity almost entirely blocked,LOXL2 [2]; judged by the shift in the concentration response curves,≤ 15 min
same,time-dependent LOXL2 inhibition,LOXL2 [2]; longer incubation with the enzyme,increased potency upon longer incubation with the enzyme
same,% inhibition,[3],33%
